Here are results for seven compounds from paper PMC8536124 (International Journal of Molecular Sciences, 2021).

“Also recorded” adds a separate entry of the source. Where two headings read alike, the source gives them in different places.

For data set [1], the system named is CAKI-1. The data set can be described thus: NCI-60 screening (SRB). The class given is cell-based, human. The following applies: CAKI-1 (Renal cancer); 1 dose 10 µM.
In data set [2] the test system is NCI-60 cancer cell line panel. The data set can be described thus: NCI-60 screening (SRB), full panel. The following applies: 1 dose 10 µM; for activity at 10 µM: Homo sapiens, 60 cell lines, 48 h. The class given is cell-based, human. An excerpt:
(§1) The experimental data allow the assessment of the cytostatic effect, indicated by growth inhibition values ranging between 0 and 100, as well as of the cytotoxic effect, indicated by negative values.
(§2) The mean GI50 (molar concentration of the compound that inhibits 50% net cell growth), TGI (molar concentration of the compound leading to the total inhibition), and LC50 (molar concentration of the compound leading to 50% net cell death (presented in negative logarithm)) values across each cell line are shown in Table 2.
(§3) The selectivity index (SI), calculated as the ratio between the full panel MG_MID60 (μM) of compounds 4, 6, and 9 by their respective subpanels MG_MID of the cell line (μM), was introduced as a quantification tool for the selectivity of each compound in terms of anticancer effect (Table 3).
(§4) Primary anticancer assays were performed according to the NCI protocol, as described elsewhere (see e.g., http://dtp.nci.nih.gov accessed on 1 November 2018). The compounds were added at a single concentration, and the cell cultures were incubated for 48 h. The end point determinations were made with a protein-binding dye, sulforhodamine B (SRB). […] The percentage of growth was evaluated spectrophotometrically versus controls not treated with test agents after 48 h exposure and using SRB protein assay to estimate cell viability or growth. Three antitumor activity dose-response parameters were calculated for each cell line. Furthermore, mean graph midpoints (MG_MID) were calculated for each of the parameters, giving an average activity parameter over all cell lines for the tested compound. For the MG_MID calculation, insensitive cell lines were included with the highest concentration tested.

The subject of data set [3] is HL-60(TB). The data set can be described thus: NCI-60 screening (SRB). It counts as cell-based, human. Conditions: HL-60(TB) (Leukemia); 1 dose 10 µM.
For data set [4], the system named is Leukemia. Put plainly: NCI-60 screening (SRB), subpanel. The following applies: leukemia cancer cell lines; 1 dose 10 µM. The class given is cell-based.
Excerpt: as §1, §2, §3, §4

Data set [5] concerns A498. Put plainly: NCI-60 screening (SRB). The following applies: A498 renal cancer; 1 dose 10 µM. It counts as cell-based, human.
Data set [6] has as its system LOX IMVI. The data set can be described thus: NCI-60 screening (SRB). The following applies: LOXIMVI (Melanoma); 1 dose 10 µM. It counts as cell-based, human.
In data set [7] the test system is NIH3T3 noncancer murine fibroblast cells. Set-up: method as in PMID 26044356. The following applies: NIH3T3 noncancer murine fibroblasts; cited from earlier work.
Data set [8] has as its system HCT15 colon cancer cells. Set-up: method as in doi:10.1007/BF02974180, PMID 15694457. The following applies: cited from earlier work.
Data set [9] has as its system HT29 colorectal cancer cells. Set-up: method as in doi:10.1007/BF02974180, PMID 15694457. The following applies: cited from earlier work.
In data set [10] the test system is KB oral epidermoid cancer cells. Set-up: method as in doi:10.1007/BF02974180, PMID 15694457. The following applies: cited from earlier work.
Data set [11] deals with A549 non-small lung cancer cells. Set-up: method as in doi:10.1007/BF02974180, PMID 15694457. The following applies: cited from earlier work.
For data set [12], the system named is HONE-1 nasopharyngeal cancer cells. Set-up: method as in doi:10.1007/BF02974180, PMID 15694457. Conditions: cited from earlier work.
The subject of data set [13] is HeLa, MCF-7, HepG2, B16, and A375 cancer cell lines. Set-up: method as in PMID 21496972. Conditions: MCF-7, HepG2, B16, A375; cited from earlier work.
Data set [14] relates to T-lymphoblastic leukemia, breast adenocarcinoma, and cervical cancer cells. Conditions: cited from earlier work.
The subject of data set [15] is CCRF-CEM cell line. Set-up: method as in PMID 27425639. The following applies: cited from earlier work.

Consider `CCN1CCN(C(=O)[C@]23CCC(C)(C)C[C@H]2C2=CC[C@@H]4[C@@]5(C)C/C(=C/c6ccccn6)C(=O)C(C)(C)[C@@H]5CC[C@@]4(C)[C@]2(C)CC3)CC1` [Compound 5, N-(2-{2-Pyridinylidene}-3-oxoolean-12-en-28-oyl)-ethylpiperazine], for which the Growth % in data set [1] was determined as 49.25%. Further, in data set [2], the “Positive Cytostatic Effect (cell lines with percent growth 0 to 50 / total)” value was 0/59, the “Positive Cytotoxic Effect (cell lines with percent growth <0 / total)” value was 0/59 and the “antiproliferative effect in one dose primary screening” value (shortened to “antiproliferative effect”) is on record as “do not exhibit antiproliferative effects; also recorded: do not induce any significant antiproliferative activity”. Also, the activity at 10 µM in data set [2] (read-out: Mean Growth, %) was determined as 86.7%. The activity at 10 µM in data set [2] (read-out: Range of Growth, %) was 49.2 to 115%.
On to `CCN1CCN(C(=O)[C@]23CCC(C)(C)C[C@H]2C2=CC[C@@H]4[C@@]5(C)CCC(=O)C(C)(C)[C@@H]5CC[C@@]4(C)[C@]2(C)CC3)CC1` [Compound 3, N-(3-oxo-olean-12-en-28-oyl)-ethylpiperazine], for which the Growth % in data set [3] is given as −35.82%. Also, the “growth percentages, range” value in data set [4] is given as −35.82 to 37.47%. Further, the Growth % in data set [5] was −7.95%. Besides, in data set [2], the “Positive Cytostatic Effect (cell lines with percent growth 0 to 50 / total)” value is 5/59, the “Positive Cytotoxic Effect (cell lines with percent growth <0 / total)” value is reported as 7/59 and the “antiproliferative effect” value is recorded as “moderate growth inhibition activity”. For the same compound, the activity at 10 µM in [2] (read-out: Mean Growth, %) amounted to 46%. In addition, the activity at 10 µM in [2] (read-out: Range of Growth, %) was -35.8 to 80.4%.
Regarding `CCN1CCN(C(=O)[C@]23CC[C@@H](C)[C@H](C)[C@H]2C2=CC[C@@H]4[C@@]5(C)C/C(=C/c6ccccn6)C(=O)C(C)(C)[C@@H]5CC[C@@]4(C)[C@]2(C)CC3)CC1` [Compound 8], in [2], the “Positive Cytostatic Effect (cell lines with percent growth 0 to 50 / total)” value is recorded as 0/59, the “Positive Cytotoxic Effect (cell lines with percent growth <0 / total)” value is recorded as 0/59 and the “antiproliferative effect” value is recorded as “do not exhibit antiproliferative effects; also recorded: do not induce any significant antiproliferative activity”. In addition, the activity at 10 µM in data set [2] (read-out: Mean Growth, %) was 92.4%. The activity at 10 µM in data set [2] (read-out: Range of Growth, %) fell in the range of 74.8 to 108%. The Growth % in [6] is given as 74.76%.
Take `C[C@H]1[C@H](C)CC[C@]2(C(=O)O)CC[C@]3(C)C(=CC[C@@H]4[C@@]5(C)CCC(=O)C(C)(C)[C@@H]5CC[C@]43C)[C@H]12` [Ursonic acid]: the IC50 in data set [7] is > 50 µM; in data set [8], 4.6 µM; in data set [9], 6.3 µM; in [10], 4 µM; in data set [11] it was 7.7 µM; in data set [12], 5.2 µM.
For “3,23-dihydroxy-17-piperazinyl betulinic amide”, the IC50 in data set [13] was < 10 µM.
Regarding `C=C(C)C1CCC2(C(=O)N3CCNCC3)CCC3(C)C(CCC4C5(C)CCC(O)C(C)(C)C5CCC43C)C12` (centres unmarked) [piperazine amide of betulinic acid], the cytotoxicity in [14] was 0.7 to 7.8 µM.
Consider `C=C(C)C1CCC2(C(=O)N3CCNCC3)CCC3(C)C(CCC4C5(C)CCC(O)C(C)(C)C5CCC43C)C12` (centres unmarked) [Betulinic acid piperazinyl amide], for which, in data set [15], the IC50 is 0.8 µM.
